In patent US10750743B2, “Pyridazinone herbicides” (E.I. DU PONT DE NEMOURS AND COMPANY, priority 2015, dated 2020):

Columns and labels:
Assay type in all cases: in vivo
[1] = test system: barnyardgrass (Echinochloa crus-galli); assay: Test A preemergence, directed soil spray, visual injury rating; conditions: 0 is no effect, 100 is complete control
Summary of the method: (§1)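 Compounds in a surfactant-containing solvent were applied as a directed soil spray preemergence, or postemergence to plants 2-10 cm tall at the one- to two-leaf stage, in loam-sand blend. After about 10 d in the greenhouse, injury was rated visually against untreated controls on a 0-100 scale (100 = complete control).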

[2] = test system: foxtail, giant (giant foxtail, Setaria faberii); assay: as above; conditions: 0 is no effect, 100 is complete control
Summary of the method: as §1

kochia (Kochia scoparia) [3] = assay: as above; conditions: 0 is no effect, 100 is complete control
Summary of the method: as §1

[4] = test system: pigweed (Amaranthus retroflexus); assay: as above; conditions: 0 is no effect, 100 is complete control
Summary of the method: as §1

[5] = test system: ragweed (common ragweed, Ambrosia elatior); assay: as above; conditions: 0 is no effect, 100 is complete control
Summary of the method: as §1

[6] = test system: ryegrass, It. (Italian ryegrass, Lolium multiflorum); assay: as above; conditions: 0 is no effect, 100 is complete control
Summary of the method: as §1

[7] = test system: barnyardgrass (Echinochloa crus-galli); assay: Test B flooded paddy test, visual rating; conditions: Flood, 250 g ai/ha, applied to paddy water, rated after 13 to 15 d
Summary of the method: (§2)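 Plants grown to the 2-leaf stage. At treatment, pots were flooded to 3 cm above the soil, compound was applied directly to the paddy water, and that depth was held throughout. After 13 to 15 d in the greenhouse, response was rated visually against controls on a 0 (no effect) to 100 (complete control) scale.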

[8] = test system: ducksalad (Heteranthera limosa); assay: Test B flooded paddy test, visual rating; conditions: Flood, 250 g ai/ha, applied to paddy water, rated after 13 to 15 d
Summary of the method: as §2

rice (Oryza sativa) = assay: Test B flooded paddy test, visual rating; conditions: Flood, 250 g ai/ha, applied to paddy water, rated after 13 to 15 d
Summary of the method: as §2

[9] = test system: sedge, umbrella (small-flower umbrella sedge, Cyperus difformis); assay: Test B flooded paddy test, visual rating; conditions: Flood, 250 g ai/ha, applied to paddy water, rated after 13 to 15 d
Summary of the method: as §2

[10] = test system: barnyardgrass (Echinochloa crus-galli); assay: Test A postemergence application, visual injury rating; conditions: 0 to 100 scale, 0 no effect, 100 complete control
Summary of the method: as §1

[11] = test system: blackgrass (Alopecurus myosuroides); assay: as above; conditions: 0 to 100 scale, 0 no effect, 100 complete control
Summary of the method: as §1

corn (Zea mays) = assay: as above; conditions: 0 to 100 scale, 0 no effect, 100 complete control
Summary of the method: as §1

[12] = test system: foxtail, giant (giant foxtail, Setaria faberii); assay: as above; conditions: 0 to 100 scale, 0 no effect, 100 complete control
Summary of the method: as §1

[13] = test system: galium (catchweed bedstraw, Galium aparine); assay: as above; conditions: 0 to 100 scale, 0 no effect, 100 complete control
Summary of the method: as §1

kochia (Kochia scoparia) [14] = assay: as above; conditions: 0 to 100 scale, 0 no effect, 100 complete control
Summary of the method: as §1

[15] = test system: pigweed (Amaranthus retroflexus); assay: as above; conditions: 0 to 100 scale, 0 no effect, 100 complete control
Summary of the method: as §1

[16] = test system: ragweed (common ragweed, Ambrosia elatior); assay: as above; conditions: 0 to 100 scale, 0 no effect, 100 complete control
Summary of the method: as §1

[17] = test system: ryegrass, It. (Italian ryegrass, Lolium multiflorum); assay: as above; conditions: 0 to 100 scale, 0 no effect, 100 complete control
Summary of the method: as §1

[18] = test system: wheat (Triticum aestivum); assay: as above; conditions: 0 to 100 scale, 0 no effect, 100 complete control
Summary of the method: as §1

| Structure (SMILES) | Plant response rating (0 to 100 scale), Barnyardgrass ([1]; 125 g ai/ha) | Plant response rating (0 to 100 scale), Foxtail, Giant ([2]; 125 g ai/ha) | Plant response rating (0 to 100 scale), Kochia (kochia (Kochia scoparia) [3]; 125 g ai/ha) | Plant response rating (0 to 100 scale), Pigweed ([4]; 125 g ai/ha) | Plant response rating (0 to 100 scale), Ragweed ([5]; 125 g ai/ha) | Plant response rating (0 to 100 scale), Ryegrass, It. ([6]; 125 g ai/ha) | Barnyardgrass plant response rating (0 to 100 scale, 0 is no effect, 100 is complete control) [7] | Ducksalad plant response rating (0 to 100 scale, 0 is no effect, 100 is complete control) [8] | Rice plant response rating (0 to 100 scale, 0 is no effect, 100 is complete control) (rice (Oryza sativa)) | Sedge, Umbrella plant response rating (0 to 100 scale, 0 is no effect, 100 is complete control) [9] | Barnyardgrass plant response rating ([10]; 125 g ai/ha) | Blackgrass plant response rating ([11]; 125 g ai/ha) | Corn plant response rating (corn (Zea mays); 125 g ai/ha) | Foxtail, Giant plant response rating ([12]; 125 g ai/ha) | Galium plant response rating ([13]; 125 g ai/ha) | Kochia plant response rating (kochia (Kochia scoparia) [14]; 125 g ai/ha) | Pigweed plant response rating ([15]; 125 g ai/ha) | Ragweed plant response rating ([16]; 125 g ai/ha) | Ryegrass, It. plant response rating ([17]; 125 g ai/ha) | Wheat plant response rating ([18]; 125 g ai/ha) | other results |
| --- | --- | --- | --- | --- | --- | --- | --- | --- | --- | --- | --- | --- | --- | --- | --- | --- | --- | --- | --- | --- | --- |
| CCc1sc2ncccc2c1-c1c(OC(=O)C2CC2)c(C)nn(C)c1=O [Compound 21] | 0 | 0 | 0 | 0 | 0 | 0 | 0 | 0 | 0 | 0 | 0 | 0 | 0 | 0 | 10 | 0 | 10 | 0 | 0 | 0 | Plant response rating (0 to 100 scale), Barnyardgrass ([1]; 500 g ai/ha): 0; Plant response rating (0 to 100 scale), Foxtail, Giant ([2]; 500 g ai/ha): 0; Plant response rating (0 to 100 scale), Kochia (kochia (Kochia scoparia) [3]; 500 g ai/ha): 0; Plant response rating (0 to 100 scale), Pigweed ([4]; 500 g ai/ha): 0; Plant response rating (0 to 100 scale), Ragweed ([5]; 500 g ai/ha): 0; Plant response rating (0 to 100 scale), Ryegrass, It. ([6]; 500 g ai/ha): 0; Barnyardgrass plant response rating ([10]; 500 g ai/ha): 0; Blackgrass plant response rating ([11]; 500 g ai/ha): 0; Corn plant response rating (corn (Zea mays); 500 g ai/ha): 0; Foxtail, Giant plant response rating ([12]; 500 g ai/ha): 0; Galium plant response rating ([13]; 500 g ai/ha): 20; Kochia plant response rating (kochia (Kochia scoparia) [14]; 500 g ai/ha): 0; Pigweed plant response rating ([15]; 500 g ai/ha): 30; Ragweed plant response rating ([16]; 500 g ai/ha): 0; Ryegrass, It. plant response rating ([17]; 500 g ai/ha): 0; Wheat plant response rating ([18]; 500 g ai/ha): 0 |
| COC(=O)Oc1c(C)nn(C)c(=O)c1-c1cccc2cc(C)oc12 [Compound 28] | 0 | 0 | 20 | 0 | 30 | 70 | 0 | 0 | 0 | 0 | 10 | 30 | 0 | 20 | 80 | 40 | 40 | 60 | 60 | 0 | Plant response rating (0 to 100 scale), Barnyardgrass ([1]; 31 g ai/ha): 0; Plant response rating (0 to 100 scale), Foxtail, Giant ([2]; 31 g ai/ha): 0; Plant response rating (0 to 100 scale), Kochia (kochia (Kochia scoparia) [3]; 31 g ai/ha): 0; Plant response rating (0 to 100 scale), Pigweed ([4]; 31 g ai/ha): 0; Plant response rating (0 to 100 scale), Ragweed ([5]; 31 g ai/ha): 0; Plant response rating (0 to 100 scale), Ryegrass, It. ([6]; 31 g ai/ha): 20; Barnyardgrass plant response rating ([10]; 31 g ai/ha): 0; Blackgrass plant response rating ([11]; 31 g ai/ha): 0; Corn plant response rating (corn (Zea mays); 31 g ai/ha): 0; Foxtail, Giant plant response rating ([12]; 31 g ai/ha): 0; Galium plant response rating ([13]; 31 g ai/ha): 40; Kochia plant response rating (kochia (Kochia scoparia) [14]; 31 g ai/ha): 0; Pigweed plant response rating ([15]; 31 g ai/ha): 10; Ragweed plant response rating ([16]; 31 g ai/ha): 20; Ryegrass, It. plant response rating ([17]; 31 g ai/ha): 30; Wheat plant response rating ([18]; 31 g ai/ha): 0 |
| COC(=O)Oc1c(C)nn(C)c(=O)c1-c1ccc(Cl)c2oc(C)cc12 [Compound 53] | 30 | 0 | 0 | 40 | 0 | 60 | 0 | 0 | 0 | 0 | 10 | 0 | 0 | 0 | 80 | 0 | 50 | 30 | 30 | 0 | Plant response rating (0 to 100 scale), Barnyardgrass ([1]; 31 g ai/ha): 0; Plant response rating (0 to 100 scale), Foxtail, Giant ([2]; 31 g ai/ha): 0; Plant response rating (0 to 100 scale), Kochia (kochia (Kochia scoparia) [3]; 31 g ai/ha): 0; Plant response rating (0 to 100 scale), Pigweed ([4]; 31 g ai/ha): 0; Plant response rating (0 to 100 scale), Ragweed ([5]; 31 g ai/ha): 20; Plant response rating (0 to 100 scale), Ryegrass, It. ([6]; 31 g ai/ha): 0; Barnyardgrass plant response rating ([10]; 31 g ai/ha): 0; Blackgrass plant response rating ([11]; 31 g ai/ha): 0; Corn plant response rating (corn (Zea mays); 31 g ai/ha): 0; Foxtail, Giant plant response rating ([12]; 31 g ai/ha): 0; Galium plant response rating ([13]; 31 g ai/ha): 60; Kochia plant response rating (kochia (Kochia scoparia) [14]; 31 g ai/ha): 0; Pigweed plant response rating ([15]; 31 g ai/ha): 30; Ragweed plant response rating ([16]; 31 g ai/ha): 0; Ryegrass, It. plant response rating ([17]; 31 g ai/ha): 10; Wheat plant response rating ([18]; 31 g ai/ha): 0 |
